Experiment [1] relates to chronic heart failure caused by systolic dysfunction. To be noted: human, in vivo.
The test system of experiment [2] is chronic heart failure caused by diastolic dysfunction. To be noted: human, in vivo.
The target in another experiment is neurokinin-1 receptor (Rattus norvegicus, UniProt P14600). As to conditions: in vivo; cited from earlier work.
The subject of experiment [3] is acute heart failure caused by viral infection. To be noted: human, in vivo.
For experiment [4], the system named is isolated cardiac fibroblasts. To be noted: cited from earlier work.

Where no end group is shown, it is not given here.

Chain of neurokinin-1 receptor (P14600 whole entry): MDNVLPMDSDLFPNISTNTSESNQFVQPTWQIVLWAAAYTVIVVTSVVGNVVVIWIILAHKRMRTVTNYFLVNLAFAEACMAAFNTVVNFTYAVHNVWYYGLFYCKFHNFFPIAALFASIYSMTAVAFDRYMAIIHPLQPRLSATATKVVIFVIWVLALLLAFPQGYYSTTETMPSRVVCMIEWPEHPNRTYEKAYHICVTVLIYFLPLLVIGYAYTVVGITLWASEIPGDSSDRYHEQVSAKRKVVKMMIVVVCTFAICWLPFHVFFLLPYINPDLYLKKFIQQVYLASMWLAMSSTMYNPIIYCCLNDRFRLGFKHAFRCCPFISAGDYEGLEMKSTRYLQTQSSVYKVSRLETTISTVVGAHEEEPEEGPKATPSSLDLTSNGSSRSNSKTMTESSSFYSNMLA

Turning to botulinum toxin, in experiment [1], the “Substance P blood levels” value is listed as “lower than before”; the “patient-reported breath and fatigue” value was “significant improvement in breath and fatigue”. Moreover, in experiment [2], the glutamate blood level entry was “lower than before”; the “patient-reported breath and pulmonary edema” value was “significant improvement in breath and pulmonary edema”; the “substance P blood level” value is on record as “lower than before”.

Turning to `CC(=O)N[C@@H](Cc1c[nH]c2ccccc12)C(=O)OCc1cc(C(F)(F)F)cc(C(F)(F)F)c1` [L732138], at neurokinin-1 receptor, the “cardiac fibrosis in SHR” value is reported as “prevented”, the “increase of fetal gene expression by cardiomyocytes in SHR” value is listed as “prevented” and the “upregulation of endothelin-1 in SHR” value is “prevented”.

With `[N-]=[N+]=O` [nitrous oxide], in experiment [3], the glutamate blood level result is “lower than before”; the “patient-reported respiratory rate and peripheral edema” value is “significant improvement in respiratory rate and peripheral edema”; the “substance P blood level” value is on record as “lower than before”.

For “substance P: sensory nerve neuropeptide (tachykinin) acting on the neurokinin-1 receptor (RPKPQQFFGLM; ends and bridges not checked; UniProt P20366 58-68, looked up)”, in experiment [4], the fibroblast function result is “no changes in fibroblast function were observed”; the “genes related to cell-cell adhesion, cell-matrix adhesion, and extracellular matrix regulation” value is recorded as “transiently up-regulated”.

(Values after US20240238392A1 (priority 2023, published 2024).)
